The values that follow come from the supplement of paper PMC10331698.

± gives the standard deviation of the averaged measurements.

What all share (experiment): level (log10 ratio to DMSO vehicle control); higher = higher biomarker level / cell amount than vehicle control
Compound in assay [1]: OCCC(F)(F)C(F)(F)C(F)(F)C(F)(F)F [4:2 Fluorotelomer alcohol] (in DMSO)
The method, then: (§1)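 BioMAP Diversity Plus panel of 12 human primary cell co-culture systems (3C, 4H, LPS, SAg, BT, BF4T, BE3C, CASM3C, HDF3CGF, KF3CT, MyoF, Mphg). Compounds were added 1 h before stimulation and left for 24 h (MyoF 48 h; BT 72 h for soluble read-outs or 6 d for IgG). Biomarkers were read by ELISA, cytotoxicity by SRB, PBMC viability and proliferation by Alamar Blue. Each well value was divided by the mean of 8 DMSO control wells on the same plate and log10 transformed; duplicate blinded samples were tested at 4 concentrations.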

Compound in assay [2]: OCC(F)(F)OC(F)(F)C(F)(F)OC(F)(F)C(F)(F)OC(F)(F)CO [1H,1H,11H,11H-Perfluorotetraethylene glycol] (in DMSO)
The method, then: as §1

Compound in assay [3]: O=S(=O)(O)C(F)(F)C(F)(F)C(F)(F)C(F)(F)C(F)(F)C(F)(F)C(F)(F)F [Perfluoroheptanesulfonic acid] (in DMSO)
The method, then:
as §1

Compound in assay [4]: CCOC(=O)CC(=O)C(F)(F)C(F)(F)F [Ethyl pentafluoropropionyl acetate] (in DMSO)
The method, then:
as §1

Compound in assay [5]: O=C(O)C=C(C(F)(F)F)C(F)(F)F [3,3-Bis(trifluoromethyl)-2-propenoic acid] (in DMSO)
The method, then:
as §1

Compound in another assay: O=C(O)C(F)(F)C(F)(F)C(F)(F)C(F)(F)C(F)(F)C(F)(F)C(F)(F)C(F)(F)C(F)(F)C(F)(F)F [Perfluoroundecanoic acid] (in DMSO)
The settings on record: 6700 nM. The method, then:
as §1

Compound in assay [6]: O=S(=O)(O)CCC(F)(F)C(F)(F)C(F)(F)C(F)(F)C(F)(F)C(F)(F)C(F)(F)C(F)(F)F [8:2 Fluorotelomer sulfonic acid] (in DMSO)
The method, then: as §1

Take lMphg:sIL-10: the “level (log10)” value in assay [1] (6700 nM) was -0.0195 ± 0.0078; in assay [1] (20000 nM), -0.0385 ± 0.022; in assay [1] (60000 nM), -0.025 ± 0.0099; in assay [2] (6700 nM), -0.0385 ± 0.056; in assay [2] (20000 nM), -0.0965 ± 0.066; in assay [2] (60000 nM), -0.306 ± 0.025. The “level (log10)” value in assay [3] (1500 nM) was -0.042 ± 0.018; in assay [3] (4400 nM), -0.109 ± 0.048; in assay [3] (13000 nM) it was -0.101 ± 0.023; in assay [3] (40000 nM), -0.239 ± 0.072; in assay [4] (6700 nM), -0.0405 ± 0.012; in assay [4] (20000 nM), -0.0435 ± 0.035. Further, the “level (log10)” value in assay [4] (60000 nM) was -0.0305 ± 0.022; in assay [5] (6700 nM) it was -0.2 ± 0.0071; in assay [5] (20000 nM), -0.325 ± 0.029; in assay [5] (60000 nM), -0.547 ± 0.028; in the assay with Perfluoroundecanoic acid, 0.0325 ± 0.016; in assay [6] (6700 nM), -0.078 ± 0.024. Further, the “level (log10)” value in assay [6] (20000 nM) was -0.216 ± 0.0057; in assay [6] (60000 nM), -0.6535 ± 0.0064.
